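Cells were grown in 96-well plates and exposed to each compound for 48 hours at five concentrations; endpoints were interpolated linearly between bracketing concentrations, or set to the highest concentration if not reached. TGI: concentration producing complete growth inhibition.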
How the values were obtained:
Experiment in all cases: growth of human tumour cells (NCI), 48 h
ACHN renal = tested on: ACHN renal
M14 melanoma = tested on: M14 melanoma
HCC-2998 colon = tested on: HCC-2998 colon
M19-MEL melanoma = tested on: M19-MEL melanoma
786-0 renal = tested on: 786-0 renal
SNB-78 CNS = tested on: SNB-78 CNS
SNB-75 CNS = tested on: SNB-75 CNS
DMS 114 small cell lung = tested on: DMS 114 small cell lung
HT29 colon = tested on: HT29 colon
NCI-H226 lung = tested on: NCI-H226 lung
SK-OV-3 ovarian = tested on: SK-OV-3 ovarian
COLO 205 colon = tested on: COLO 205 colon
TK-10 renal = tested on: TK-10 renal
UO-31 renal = tested on: UO-31 renal
KM12 colon = tested on: KM12 colon
SNB-19 CNS = tested on: SNB-19 CNS
SF-539 CNS = tested on: SF-539 CNS
OVCAR-4 ovarian = tested on: OVCAR-4 ovarian
NCI-H460 lung = tested on: NCI-H460 lung
LOX IMVI melanoma = tested on: LOX IMVI melanoma
MALME-3M melanoma = tested on: MALME-3M melanoma
SF-268 CNS = tested on: SF-268 CNS
OVCAR-3 ovarian = tested on: OVCAR-3 ovarian
DLD-1 colon = tested on: DLD-1 colon
OVCAR-5 ovarian = tested on: OVCAR-5 ovarian
HOP-18 NSCLC = tested on: HOP-18 NSCLC
RPMI-8226 leukemia = tested on: RPMI-8226 leukemia
MOLT-4 leukemia = tested on: MOLT-4 leukemia
A549 NSCLC = tested on: A549 NSCLC
U251 CNS = tested on: U251 CNS
UACC-257 melanoma = tested on: UACC-257 melanoma
K-562 leukemia = tested on: K-562 leukemia
CCRF-CEM leukemia = tested on: CCRF-CEM leukemia
IGROV1 ovarian = tested on: IGROV1 ovarian
CAKI-1 renal = tested on: CAKI-1 renal
HOP-62 NSCLC = tested on: HOP-62 NSCLC
SW-620 colon = tested on: SW-620 colon
SR leukemia = tested on: SR leukemia
KM20L2 colon = tested on: KM20L2 colon
SF-295 CNS = tested on: SF-295 CNS
UACC-62 melanoma = tested on: UACC-62 melanoma
DMS 273 small cell lung = tested on: DMS 273 small cell lung
NCI-H23 lung = tested on: NCI-H23 lung
SK-MEL-5 melanoma = tested on: SK-MEL-5 melanoma
HCT-15 colon = tested on: HCT-15 colon
SK-MEL-28 melanoma = tested on: SK-MEL-28 melanoma
RXF 393 renal = tested on: RXF 393 renal
HOP-92 NSCLC = tested on: HOP-92 NSCLC
A498 renal = tested on: A498 renal
HCT-116 colon = tested on: HCT-116 colon
SN12C renal = tested on: SN12C renal
OVCAR-8 ovarian = tested on: OVCAR-8 ovarian
HL-60(TB) leukemia = tested on: HL-60(TB) leukemia
LXFL 529 NSCLC = tested on: LXFL 529 NSCLC
SK-MEL-2 melanoma = tested on: SK-MEL-2 melanoma
EKVX NSCLC = tested on: EKVX NSCLC
NCI-H522 lung = tested on: NCI-H522 lung

COC(=O)C1[C@@H](C(=O)OC)C(=O)O[C@H]1c1cc(OC)c(OC)c(OC)c1 (stereo partly drawn)
TGI (ACHN renal): > 100 µM
TGI (M14 melanoma): > 100 µM
TGI (HCC-2998 colon): > 100 µM
TGI (M19-MEL melanoma): > 100 µM
TGI (786-0 renal): > 100 µM
TGI (SNB-78 CNS): > 100 µM
TGI (SNB-75 CNS): > 100 µM
TGI (DMS 114 small cell lung): > 100 µM
TGI (HT29 colon): > 100 µM
TGI (NCI-H226 lung): > 100 µM
TGI (SK-OV-3 ovarian): > 100 µM
TGI (COLO 205 colon): > 100 µM
TGI (TK-10 renal): > 100 µM
TGI (UO-31 renal): > 100 µM
TGI (KM12 colon): > 100 µM
TGI (SNB-19 CNS): > 100 µM
TGI (SF-539 CNS): > 100 µM
TGI (OVCAR-4 ovarian): > 100 µM
TGI (NCI-H460 lung): > 100 µM
TGI (LOX IMVI melanoma): > 100 µM
TGI (MALME-3M melanoma): > 100 µM
TGI (SF-268 CNS): > 100 µM
TGI (OVCAR-3 ovarian): > 100 µM
TGI (DLD-1 colon): > 100 µM
TGI (OVCAR-5 ovarian): > 100 µM
TGI (HOP-18 NSCLC): > 100 µM
TGI (RPMI-8226 leukemia): > 100 µM
TGI (MOLT-4 leukemia): > 100 µM
TGI (A549 NSCLC): > 100 µM
TGI (U251 CNS): > 100 µM
TGI (UACC-257 melanoma): > 100 µM
TGI (K-562 leukemia): > 100 µM
TGI (CCRF-CEM leukemia): > 100 µM
TGI (IGROV1 ovarian): > 100 µM
TGI (CAKI-1 renal): > 100 µM
TGI (HOP-62 NSCLC): > 100 µM
TGI (SW-620 colon): > 100 µM
TGI (SR leukemia): > 100 µM
TGI (KM20L2 colon): > 100 µM
TGI (SF-295 CNS): > 100 µM
TGI (UACC-62 melanoma): > 100 µM
TGI (DMS 273 small cell lung): > 100 µM
TGI (NCI-H23 lung): > 100 µM
TGI (SK-MEL-5 melanoma): > 100 µM
TGI (HCT-15 colon): > 100 µM
TGI (SK-MEL-28 melanoma): > 100 µM
TGI (RXF 393 renal): > 100 µM
TGI (HOP-92 NSCLC): > 100 µM
TGI (A498 renal): > 100 µM
TGI (HCT-116 colon): > 100 µM
TGI (SN12C renal): > 100 µM
TGI (OVCAR-8 ovarian): > 100 µM
TGI (HL-60(TB) leukemia): > 100 µM
TGI (LXFL 529 NSCLC): > 100 µM

COC1/C(=C\c2ccccc2I)c2ccccc2N1C(C)=O (stereo not drawn)
TGI (ACHN renal): > 100 µM
TGI (HCC-2998 colon): 33.9 µM
TGI (M19-MEL melanoma): 42.4 µM
TGI (786-0 renal): 33.3 µM
TGI (SNB-78 CNS): 82.5 µM
TGI (SNB-75 CNS): 55 µM
TGI (DMS 114 small cell lung): 38.7 µM
TGI (HT29 colon): 37.1 µM
TGI (COLO 205 colon): 31.5 µM
TGI (UO-31 renal): 9.91 µM
TGI (KM12 colon): 29 µM
TGI (SNB-19 CNS): 60.4 µM
TGI (SF-539 CNS): 31.2 µM
TGI (OVCAR-4 ovarian): 32.1 µM
TGI (NCI-H460 lung): 33.5 µM
TGI (OVCAR-3 ovarian): 31.2 µM
TGI (DLD-1 colon): 43.4 µM
TGI (HOP-18 NSCLC): 38.1 µM
TGI (RPMI-8226 leukemia): 39.1 µM
TGI (MOLT-4 leukemia): 35.8 µM
TGI (A549 NSCLC): 35.8 µM
TGI (SK-MEL-2 melanoma): 32.5 µM
TGI (U251 CNS): 42.6 µM
TGI (UACC-257 melanoma): 44.1 µM
TGI (K-562 leukemia): 53.3 µM
TGI (CCRF-CEM leukemia): 59.1 µM
TGI (IGROV1 ovarian): 39.6 µM
TGI (CAKI-1 renal): 50 µM
TGI (HOP-62 NSCLC): 32.7 µM
TGI (EKVX NSCLC): 39.6 µM
TGI (SW-620 colon): 39.2 µM
TGI (SR leukemia): 42.9 µM
TGI (KM20L2 colon): 30 µM
TGI (SF-295 CNS): 29.2 µM
TGI (UACC-62 melanoma): 26.7 µM
TGI (DMS 273 small cell lung): 27.1 µM
TGI (NCI-H23 lung): 36.5 µM
TGI (HCT-15 colon): 37.4 µM
TGI (SK-MEL-28 melanoma): 38.3 µM
TGI (RXF 393 renal): 22.3 µM
TGI (HOP-92 NSCLC): 8.99 µM
TGI (A498 renal): 30.1 µM
TGI (HCT-116 colon): 26.8 µM
TGI (SN12C renal): 28.8 µM
TGI (OVCAR-8 ovarian): > 100 µM
TGI (HL-60(TB) leukemia): 16.1 µM
TGI (LXFL 529 NSCLC): 87.4 µM

Nc1nc(N)c2ncn(CCCC(c3ccccc3)P(=O)(O)O)c2n1 (stereo not drawn)
TGI (ACHN renal): > 100 µM
TGI (M14 melanoma): > 100 µM
TGI (HCC-2998 colon): > 100 µM
TGI (M19-MEL melanoma): > 100 µM
TGI (786-0 renal): > 100 µM
TGI (SNB-78 CNS): > 100 µM
TGI (SNB-75 CNS): > 100 µM
TGI (DMS 114 small cell lung): > 100 µM
TGI (HT29 colon): > 100 µM
TGI (SK-OV-3 ovarian): > 100 µM
TGI (COLO 205 colon): > 100 µM
TGI (TK-10 renal): > 100 µM
TGI (UO-31 renal): > 100 µM
TGI (KM12 colon): > 100 µM
TGI (SNB-19 CNS): > 100 µM
TGI (SF-539 CNS): > 100 µM
TGI (NCI-H460 lung): > 100 µM
TGI (LOX IMVI melanoma): > 100 µM
TGI (MALME-3M melanoma): > 100 µM
TGI (SF-268 CNS): > 100 µM
TGI (OVCAR-3 ovarian): > 100 µM
TGI (DLD-1 colon): > 100 µM
TGI (OVCAR-5 ovarian): > 100 µM
TGI (HOP-18 NSCLC): > 100 µM
TGI (RPMI-8226 leukemia): > 100 µM
TGI (NCI-H522 lung): > 100 µM
TGI (A549 NSCLC): > 100 µM
TGI (SK-MEL-2 melanoma): > 100 µM
TGI (U251 CNS): > 100 µM
TGI (UACC-257 melanoma): > 100 µM
TGI (K-562 leukemia): > 100 µM
TGI (CCRF-CEM leukemia): > 100 µM
TGI (IGROV1 ovarian): > 100 µM
TGI (CAKI-1 renal): > 100 µM
TGI (HOP-62 NSCLC): > 100 µM
TGI (SW-620 colon): > 100 µM
TGI (SR leukemia): > 100 µM
TGI (KM20L2 colon): > 100 µM
TGI (SF-295 CNS): > 100 µM
TGI (UACC-62 melanoma): > 100 µM
TGI (DMS 273 small cell lung): > 100 µM
TGI (NCI-H23 lung): 36 µM
TGI (SK-MEL-5 melanoma): > 100 µM
TGI (HCT-15 colon): > 100 µM
TGI (SK-MEL-28 melanoma): > 100 µM
TGI (HOP-92 NSCLC): > 100 µM
TGI (A498 renal): > 100 µM
TGI (HCT-116 colon): > 100 µM
TGI (SN12C renal): > 100 µM
TGI (OVCAR-8 ovarian): > 100 µM
TGI (HL-60(TB) leukemia): > 100 µM
TGI (LXFL 529 NSCLC): > 100 µM

— PubChem BioAssay (NCI)
